Source: PubChem BioAssay (NCI)
Where “and” joins values, the source holds several entries; their conditions need not be identical. Equal entries are not always repeated.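 Dose response: 5 concentrations. Exposure: 48 h. Format: 96-well plates. Endpoint: linear interpolation; highest concentration if not reached. The concentration for 50% growth inhibition is given as GI50. TGI marks complete inhibition of growth.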 *1 amine or outer side, *2 acyl side, *3 side chain or, on linkers, in order; H or OH if unused. Where a SMILES comes first, the peptide text is derived from it. Bridges are numbered along the chain shown (N, C = ends). [ ]: non-standard residue; d: D form. The star is where a group is joined. ξ: configuration not given here. X35 = CC[C@H](C)[C@@H](N[*:1])[C@@H](O)CC(=O)O[C@H](C(=O)[C@H](C)C(=O)[*:2])C(C)C; NMeY = CN[C@@H](Cc1ccc(O)cc1)C(=O)O; NMeF = CN[CH](Cc1ccccc1)C(=O)O; ξNMeF = CNC(Cc1ccccc1)C(=O)O; NMeV = CN[CH](C(=O)O)C(C)C; Boc = CC(C)(C)OC(=O)*; OBn = c1ccc(CO*)cc1

Columns and labels:
Test in all cases: DTP human tumour cell line panel, 48 h
ACHN renal = test system: ACHN renal
OVCAR-8 ovarian = test system: OVCAR-8 ovarian
SNB-19 CNS = test system: SNB-19 CNS
SK-MEL-28 melanoma = test system: SK-MEL-28 melanoma
HOP-62 NSCLC = test system: HOP-62 NSCLC
SK-OV-3 ovarian = test system: SK-OV-3 ovarian
OVCAR-5 ovarian = test system: OVCAR-5 ovarian
IGROV1 ovarian = test system: IGROV1 ovarian
KM12 colon = test system: KM12 colon
SF-295 CNS = test system: SF-295 CNS
UO-31 renal = test system: UO-31 renal
786-0 renal = test system: 786-0 renal
SF-268 CNS = test system: SF-268 CNS
NCI-H23 lung = test system: NCI-H23 lung
MOLT-4 leukemia = test system: MOLT-4 leukemia
HL-60(TB) leukemia = test system: HL-60(TB) leukemia

Row | Compound | TGI (ACHN renal) [µM] | TGI (OVCAR-8 ovarian) [µM] | TGI (SNB-19 CNS) [µM] | TGI (SK-MEL-28 melanoma) [µM] | TGI (HOP-62 NSCLC) [µM] | TGI (SK-OV-3 ovarian) [µM] | TGI (OVCAR-5 ovarian) [µM] | TGI (IGROV1 ovarian) [µM] | TGI (KM12 colon) [µM] | TGI (SF-295 CNS) [µM] | TGI (UO-31 renal) [µM] | TGI (786-0 renal) [µM] | TGI (SF-268 CNS) [µM] | TGI (NCI-H23 lung) [µM] | TGI (MOLT-4 leukemia) | TGI (HL-60(TB) leukemia) | GI50 (ACHN renal) | GI50 (SNB-19 CNS) | GI50 (KM12 colon) | GI50 (MOLT-4 leukemia)
1 | CCCC(=O)OCC1OC(n2cc(F)c(=O)[nH]c2=O)CC1O (stereo unspecified) | > 10 | > 10 | > 10 | > 10 | > 10 | > 10 | > 10 | > 10 | > 10 | > 3.02 | > 10 | > 10 | > 10 | 1.66 | > 10 µM | > 10 µM | – | – | – | –
2 | CC[C@H](C)[C@H]1NC(=O)[C@@H](N)[C@@H](C)OC(=O)[C@H](Cc2ccc(OC)cc2)N(C)C(=O)[C@@H]2CCCN2C(=O)[C@H](CC(C)C)NC(=O)[C@@H](C)C(=O)[C@H](C(C)C)OC(=O)C[C@@H]1O (H-T[X35]LP[NMeY](Me); ester 1-C) | > 100 | > 100 | > 100 | > 100 | > 100 | > 100 | > 100 | > 100 | 68.1 | > 100 | 68.7 | > 100 | > 100 | > 100 | > 100 µM | > 100 µM | – | – | – | –
3 | C=C(C)[C@H]1CC[C@@]23O[C@@H]2[C@@H](C[C@@]2(C)CC(=O)[C@H](CC(=O)C1)O2)OC(=O)[C@@]12CC[C@H](C(=C)C)CC(=O)C[C@H]4O[C@](C)(CC4=O)C[C@@H](OC3=O)[C@@H]1O2 | > 100 | > 100 | > 100 | > 100 | > 100 | > 100 | > 100 | > 100 | > 100 | > 100 | > 100 | > 100 | – | > 100 | > 100 µM | > 100 µM | – | – | – | –
4 | COc1cc(S(=O)(=O)Nc2ccc(-c3csc(N4C(=O)C(C)SC4c4cccs4)n3)cc2)ccc1Cl (stereo unspecified) | > 100 | > 100 | – | 69 | > 100 | > 100 | > 100 | > 100 | 23 | > 100 | > 100 | > 100 | > 100 | > 100 | > 100 µM | 41.7 µM | – | – | – | –
5 | CC(C)C(NC(=O)OC(C)(C)C)C(=O)N(C)C(Cc1ccccc1)C(=O)N(C)C(C(=O)OCc1ccccc1)C(C)C (stereo not drawn) (Boc-Val-[NMeF]-[NMeV]-OBn; configuration not given here) | > 100 | > 100 | > 100 | > 100 | > 100 | > 100 | – | > 100 | > 100 | > 100 | > 100 | > 100 | > 100 | > 100 | 39.6 µM and 44 µM | > 100 µM and 53.9 µM | > 100 µM and 41 µM | > 100 µM and 32.8 µM | 38.2 µM and 82.9 µM | 5.92 µM and 14.8 µM
6 | CNc1cc([N+](=O)[O-])ccc1C(=O)N1CCC[C@H]1CO | > 100 | > 100 | > 100 | > 100 | > 100 | > 100 | > 100 | > 100 | > 100 | > 100 | > 100 | > 100 | > 100 | – | > 100 µM | > 100 µM | – | – | – | –
7 | CC(C)[C@@H](C(=O)N(C)[C@H](C(=O)N1CCC[C@H]1C(=O)OCc1ccccc1)C(C)C)N(C)C(=O)C(Cc1ccccc1)N(C)C(=O)[C@H](NC(=O)OC(C)(C)C)C(C)C (stereo partly specified) (Boc-[dV][ξNMeF][NMeV][NMeV]P-OBn) | > 100 | > 31.6 | > 31.6 | > 31.6 | > 31.6 | > 31.6 | > 31.6 | > 31.6 | – | > 31.6 | > 31.6 | > 69.7 | > 31.6 | > 100 | > 31.6 µM | > 31.6 µM | – | – | – | –
8 | C=C(Cl)/C(=C\Cl)CCC(Cl)C(C)C (stereo unspecified) (tested in a mixture with another compound) | 30.4 | – | 31.5 | 34.8 | 32.6 | 44.5 | 34.8 | 28.4 | 27.6 | 41.2 | 32.1 | 29.5 | 37.1 | 28.2 | > 100 µM | > 100 µM | – | – | – | –
9 | CN(C)c1ccc(C=Nc2ccc(-c3nc4ccccc4s3)cc2)cc1 | 69 | > 100 | > 100 | > 100 | 82.8 | > 100 | > 100 | > 100 | > 100 | 29.9 | > 100 | 42.8 | – | 97.6 | > 100 µM | 0.525 µM | – | – | – | –
10 | COC(=O)C1(C(=O)OC)N=C(C)OC1c1ccccc1O (stereo unspecified) | > 100 | > 100 | > 100 | > 100 | > 100 | > 100 | > 100 | > 100 | > 100 | > 100 | > 100 | > 100 | – | > 100 | > 100 µM | > 100 µM | – | – | – | –
11 | C[N+](C)(C)CC(=O)N/N=C(\Cc1nc2ccc([N+](=O)[O-])cc2[nH]c1=O)C(=O)Nc1nc2ccc([N+](=O)[O-])cc2s1 | > 100 | > 100 | – | > 100 | > 100 | > 100 | > 100 | > 100 | > 100 | > 100 | > 100 | > 100 | > 100 | > 100 | > 100 µM | > 100 µM | – | – | – | –
12 | COc1ccc(Cc2cc(Cc3ccc(OC)cc3)cc(Cc3ccc(OC)cc3)c2)cc1 | > 100 | > 100 | > 100 | > 100 | > 100 | > 100 | > 100 | > 100 | > 100 | > 100 | > 100 | > 100 | > 100 | – | > 100 µM | > 100 µM | – | – | – | –
13 | C=C(C)C1CC[C@@](C)(O)[C@H](C#N)C1 (stereo partly specified) | > 100 | > 100 | > 100 | > 100 | > 100 | > 100 | > 100 | – | > 100 | > 100 | > 100 | > 100 | > 100 | > 100 | > 100 µM | > 100 µM | – | – | – | –
14 | NS(=O)(=O)c1nnc(NS(=O)(=O)c2ccccc2[N+](=O)[O-])s1 | > 100 | – | > 100 | > 100 | > 100 | > 100 | > 100 | > 100 | > 100 | > 100 | > 100 | > 100 | > 100 | > 100 | > 100 µM | > 100 µM | – | – | – | –
